# Results published in patent US20260337246A1, “METHODS FOR TREATING OBESITY” (Zealand Pharma A/S, priority 2022, published 2026).
# Test: Predicted half-life in humans
smiles,measurement,value
CC[C@H](C)[C@H](NC(=O)[C@H](Cc1ccccc1)NC(=O)[C@H](C)NC(=O)[C@H](CCC(N)=O)NC(=O)[C@H](C)NC(=O)[C@H](C)NC(=O)[C@H](CCCCNC(=O)COCCOCCNC(=O)COCCOCCNC(=O)CN1CCN(C(=O)CCCCCCCCCCCCCCCCCCC(=O)O)CC1)NC(=O)[C@H](CCCCN)NC(=O)[C@H](CC(=O)O)NC(=O)[C@H](CC(C)C)NC(=O)[C@H](CCC(=O)O)NC(=O)[C@@H](NC(=O)[C@H](CO)NC(=O)[C@H](Cc1ccc(O)cc1)NC(=O)[C@H](CC(=O)O)NC(=O)[C@H](CO)NC(=O)[C@@H](NC(=O)[C@H](Cc1ccccc1)NC(=O)[C@@H](NC(=O)CNC(=O)[C@H](CCC(=O)O)NC(=O)C(C)(C)NC(=O)[C@@H](N)Cc1ccc(O)cc1)[C@@H](C)O)[C@@H](C)CC)[C@@H](C)CC)C(=O)N[C@@H](CCC(=O)O)C(=O)N[C@@H](Cc1c[nH]c2ccccc12)C(=O)N[C@@H](CC(C)C)C(=O)N[C@@H](CC(C)C)C(=O)N[C@@H](C)C(=O)N[C@@H](CCC(N)=O)C(=O)NCC(=O)N1CCC[C@H]1C(=O)N[C@@H](CO)C(=O)N[C@@H](CO)C(=O)NCC(=O)N[C@@H](C)C(=O)N1CCC[C@H]1C(=O)N1CCC[C@H]1C(=O)N1CCC[C@H]1C(=O)N[C@@H](CO)C(N)=O [Compound 41],predicted half-life (in words),half-life supporting once-weekly dosing in humans
